# From publication PMC4822800, “Modifications of the 7-Hydroxyl Group of the Transthyretin Ligand Luteolin Provide Mechanistic Insights into Its Binding Properties and High Plasma Specificity” (PLoS ONE, 2016)
# Like-named read-outs stand apart in the source and are kept apart here.
# Assays:
# [1] = target: T1, TTR (Homo sapiens, UniProt P02766); parameters: method as in ref 49 = [49]; PMID 22842046; doi:10.1016/j.jsb.2012.07.008; 49 Trivella DB , dos Reis CV , Lima LM , Foguel D , Polikarpov I ( 2012 ) Flavonoid interactions with human transthyretin: combined structural and thermodynamic analysis . J Struct Biol 180 : 143 – 15; conditions: binding to TTR; cited from earlier work
# T1 construct: Expression of TTR was performed as described previously; made in house; host or cells: Escherichia coli BL21
# [2] = target: T1, TTR; assay: Microscale thermophoresis (MST) binding to NT-647-labelled TTR; conditions: 300 nM NT-647-labelled TTR, PBS, 5% DMSO, mean ± S.E.M. of three measurements, read-out: dissociation constant (Kd)
# Method: We used MST to measure the affinity between the different ligands and TTR. TTR was labelled with the Monolith NT protein labelling kit (Nanotemper Technologies, Germany) using the sulfhydryl-reactive red fluorescent dye NT-647 Maleimide according to the manufacturer’s instructions. Labelled TTR was kept at a constant concentration of 300 nM, and luteolin, 7-Cl-Lut and 7-MeO-Lut were serially diluted yielding 13, 16 and 12 respectively different concentrations ranging from 0.24 nM to 1 μM for luteolin, 0.24 nM to 8 μM for 7-Cl-Lut, and 0.61 nM to 1.25 μM for 7-MeO-Lut. Experiments were carried out in phosphate-buffered saline and 5% DMSO with a Monolith NT.115 instrument using standard-treated capillaries (Nanotemper Technologies, Germany). Fluorescence was detected for 5 s, and the laser was switched on for 30 s followed by fluorescence detection for another 5 s. The delay time between runs was set to 25 s. The LED power and the MST were set to 80% for all drugs. Kd values were determined using NTanalysis software (NanoTemper Technologies, Germany) by fitting the data representing the mean ± S.E.M. from three independent measurements to the Kd fit model.
# In order to obtain binding affinities between the drugs and TTR, we employed microscale thermophoresis (MST), which is a technique based on the directed movement of molecules in a temperature gradient. This phenomenon depends on a variety of molecular properties such as size, charge, hydration shell, and conformation. The dissociation constant (Kd) for luteolin was determined to be 150 ± 70 nM, which is in accordance with the previously published value of 100 nM determined by isothermal titration calorimetry (Fig 3A).
# Fig 3 Binding of luteolin, 7-Cl-Lut and 7-MeO-Lut to NT-647–labeled TTR. Various concentrations of the compounds were titrated against 300 nM of NT-647–labeled TTR. Kd values were determined by averaging three independent experiments (mean ± S.E.M.) using the NT analysis software. The thermophoresis signal was plotted against luteolin (A), 7-Cl-Lut (B) and 7-MeO-Lut (C) concentrations.
# [3] = target: T2, TTR in human plasma (Homo sapiens, UniProt P02766); assay: Urea-mediated denaturation gel-shift assay of TTR stabilization in human plasma (western blot of monomers); format: biochemical; conditions: for IC50: 4 M urea, 18 h, 20°C, densitometry of the monomeric band, read-out: IC50 (half maximal inhibitory concentration of TTR dissociation into monomers); for stoichiometric excess relative to TTR in human plasma to achieve the same stabilizing effect as luteolin: TTR assumed 5 μM
# T2 construct: Human plasma from a healthy donor; from tissue; host or cells: human plasma (healthy donor)
# Method: We have recently developed an assay in which the relative stability as a function of drug concentration can be evaluated in complex solutions [21]. TTR is found within the human plasma, and it is thus of interest to analyze drug efficacy in TTR’s natural environment. The analysis was performed as described previously with some modifications. Human plasma from a healthy donor was centrifuged at 20,000 × g for 10 min. The plasma was filtered using a 0.45 μm syringe filter (Filtropur S, Nümbrecht, Germany). A solution of 1 M sodium phosphate buffer at pH 7.0 was added to a final concentration of 40 mM. […] The reactions were incubated for 2 h at 20°C. Denaturation was initiated by addition of 4 M urea, 40 mM sodium phosphate buffer pH 7.4, and 150 mM NaCl. The samples were incubated for 18 h at 20°C followed by separation by gel electrophoresis using tricine-based SDS-PAGE with 0.025% SDS in the running buffer and 0.2% SDS in the loading buffer. […] Gel electrophoresis was followed by western blotting using rabbit anti-TTR antibody (anti-prealbumin, DAKO, Denmark) followed by a horseradish peroxidase-labeled antibody (anti-rabbit HRP, GE Healthcare, Sweden). Blocking of nonspecific binding on the membrane and incubation of the antibodies were performed in 5% fat-free powdered milk containing 0.3% Tween-20. All washing steps were performed in 40 mM Tris, 150 mM NaCl, and 0.3% Tween-20. Bound antibodies were visualized on photographic film using enhanced chemiluminescence (ECL-prime, GE Healthcare, UK). […] The presence of monomers on the photographic film was quantified through a densitometric analysis using the ImageJ 1.48 software (National Institutes of Health, […], US), which also ensured that all analyses were performed within a linear range. The plasma concentration of TTR is approximately 5 μM [38], and this implies that a drug must be present at ≥5 μM to work effectively as a stabilizer. Here we used a recently developed urea-mediated denaturation assay to determine the drug concentration needed in plasma to obtain the half maximal inhibitory concentration (IC50). In the experiment, the dissociation of TTR into monomers is monitored by the appearance of a monomeric band on a western blot (Fig 8). The fraction of denaturation was quantified by densitometric analysis using ImageJ 1.48 software. […] Fig 8 Determination of IC50 for luteolin, 7-Cl-Lut and 7-MeO-Lut in human plasma. The drug’s ability to selectively stabilize TTR in plasma was evaluated using a urea denaturation assay. The dissociation of the TTR tetramer is indicated by the presence of a monomeric TTR band on a western blot. (A) Gel-shift assay of various concentrations of luteolin in human plasma. […] (C) Gel-shift assay of various concentrations of 7-MeO-Lut in human plasma.
# [4] = Glucuronidation / depletion kinetics in human liver microsomes (UHPLC); format: in vitro ADME; conditions: for half-life at 10 μM: female, pooled human liver microsomes, alamethicin-activated, 10 μM compound, 0.1 mg/mL human liver microsomes, 5 mM UDPGA, 37°C, one-phase exponential decay, read-out: half-life (t1/2); for metabolic stability relative to luteolin: human hepatic microsomes, glucuronidation by UGT enzymes
# Method: Pooled female human liver microsomes (n = 10) were purchased from XenoTech (Lenexa, US) and stored at −80°C and rapidly thawed before use. The microsomes, 0.1 mg/mL, were activated by incubation with alamethicin (Santa Cruz Biotechnology, US), 50 μg/mL microsomal protein, in 0.1 M sodium phosphate buffer using a VWR Mini Shaker (Radnor, US) at 37°C and 550 rpm for 10 min. Luteolin, 7-Cl-Lut or 7-MeO-Lut was added to give a final concentration of 10 μM and 5% DMSO, and these were pre-incubated with the activated microsomes for 5 min at 37°C and shaking at 550 rpm. The reaction was initiated by addition of 5 mM uridine 5’-diphosphoglucuronic acid, (Santa Cruz Biotechnology, US). The incubation time ranged from 0 min to 5 h. The reactions were quenched by flash freezing and stored at −80°C. The microsomes were heat inactivated using a VWR UnoCycler (Radnor, US) for 5 min at 95°C. All experiments were repeated three times.
# In order to calculate depletion kinetics, the percentage of the remaining drug was calculated by comparison with the initial quantity at 0 min. The half-life (t1/2) of luteolin, 7-Cl-Lut and 7-MeO-Lut was calculated using GraphPad Prism (GraphPad Software, Inc., US, version 5.0). Data were fitted to one-phase exponential decay: C=C0*exp(-K*t) (1) The half-life(t1/2)=0.693/K (2)
# Microsome-treated samples were diluted in 50% DMSO. Analytical HPLC was performed using a Nexera UHPLC system (Shimadzu, US) connected to a diode array detector (SPP M20A). Samples were analyzed using a Nucleodur C18 HTec column (EC 150 × 4.6, 5 μm, Macherey-Nagel) with a flow rate of 1 mL/min. Aliquots of 20 μL of each sample were injected, and detection was performed at 345 nm. The mobile phase was composed of solvent A (H2O in 0.1% TFA) and solvent B (acetonitrile in 0.1% TFA). The binary gradient profile was as follows with solvent B as the reference: 0–2.5 min, 17% B; 2.5–7.5 min, 17–25% B; 7.5–15.5 min, 25–35% B; 15.5–20.5 min, 35–50% B; 20.5–25.5 min, 50–100% B; 25.5–30.5 min, 100% B; 30.5–31 min, 100–17% B; 31–35.5 min, 17% B. Before first injection, the column was equilibrated at 17% B for 5 min.
# The metabolization of luteolin, 7-Cl-Lut and 7-MeO-Lut by the microsomes can be followed by the decrease in the substrate concentration over time. The data shown in Fig 7 were fitted to a single-component exponential decay model and the half-lives were determined using Eqs (1) and (2). Luteolin was metabolized about 3-fold faster than 7-Cl-Lut with half-lives of 16 ± 1 min and 52 ± 7 min, respectively.
# Fig 7 Depletion profile of 10 μM luteolin (triangle), 7-Cl-Lut (square) and 7-MeO-Lut (diamond) after incubation in the presence of 0.1 mg/mL human liver microsomes for various times. Each time point represents the average of three independent samples (mean ± SD) acquired through plotting the integral of the corresponding peaks from the UHPLC analysis.
# [5] = target: T1, TTR; parameters: method as in ref 37 = [37]; PMID 22842046; doi:10.1016/j.jsb.2012.07.008; 37 Trivella DBB , dos Reis CV , Lima LMTR , Foguel D , Polikarpov I ( 2012 ) Flavonoid interactions with human transthyretin: Combined structural and thermodynamic analysis . Journal of Structural Bio; conditions: isothermal titration calorimetry; read-out: Kd, previously published value; cited from earlier work
# [6] = parameters: method as in PMID 23556338; conditions: in vivo persistence against metabolic activity; cited from earlier work
Structure (SMILES),Kd [2],IC50 [3],stoichiometric excess relative to TTR in human plasma to achieve the same stabilizing effect as luteolin [3],half-life at 10 μM [4],metabolic stability relative to luteolin [4],times lower affinity compared to luteolin [1],Kd [5],half-life [6]
O=c1cc(-c2ccc(O)cc2)oc2cc(O)cc(O)c12 [apigenin],,,,,,5 times,,
O=c1cc(-c2ccccc2)oc2cc(O)cc(O)c12 [chrysin],,,,,,17 times,,

# Second part, led by results:
Kd [2],IC50 [3],stoichiometric excess relative to TTR in human plasma to achieve the same stabilizing effect as luteolin [3],half-life at 10 μM [4],metabolic stability relative to luteolin [4],Structure (SMILES),times lower affinity compared to luteolin [1],Kd [5],half-life [6]
390 ± 40 nM,~105000 nM,21 fold,36 ± 8 min,doubled,"COc1cc(O)c2c(=O)cc(-c3ccc(O)c(O)c3)oc2c1 [7-MeO-Lut, 2-(3,4-dihydroxyphenyl)-5-hydroxy-7-methoxy-4H-1-benzopyran-4-one]",,,
150 ± 70 nM,~5000 nM,,16 ± 1 min,,O=c1cc(-c2ccc(O)c(O)c2)oc2cc(O)cc(O)c12 [luteolin],,100 nM,around 8 hours
620 ± 150 nM,~65000 nM,13 fold,52 ± 7 min,approximately 3 fold,"O=c1cc(-c2ccc(O)c(O)c2)oc2cc(Cl)cc(O)c12 [7-Cl-Lut, 2-(3,4-dihydroxyphenyl)-5-hydroxy-7-chloro-4H-1-benzopyran-4-one]",,,
